Experimental data from paper PMC6120666 (The EMBO Journal, 2018).

Assays:
Test in all cases: Drug affinity chromatography with c-ponatinib and LC-MS/MS (ponatinib interactome)
Format in all cases: binding
[1] = target: T1, proteins of U2OS cell lysate (Homo sapiens, UniProt Q03252)
T1 construct: Proteins enriched by c-ponatinib from U2OS cell lysate; endogenous in cells; host or cells: U2OS cell lysate
Outline: (§1)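 U2OS cell lysate in NP-40 lysis buffer (2 mg protein per pulldown) was incubated with amine-derivatized NHS beads for 2 h at 4 °C. Bound proteins were washed, eluted with 100 mM formic acid, reduced, alkylated and trypsin-digested, then identified by nano-UPLC–MS/MS on Orbitrap instruments with a 60 min gradient.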

[2] = target: T2, proteins of U2OS cell lysate (Homo sapiens, UniProt Q92598)
T2 construct: Proteins enriched by c-ponatinib from U2OS cell lysate; endogenous in cells; host or cells: U2OS cell lysate
Outline: as §1

[3] = target: T3, proteins of U2OS cell lysate (Homo sapiens, UniProt P25786)
T3 construct: Proteins enriched by c-ponatinib from U2OS cell lysate; endogenous in cells; host or cells: U2OS cell lysate
Outline: as §1

[4] = system: proteins of U2OS cell lysate
Outline: as §1

[5] = target: T4, proteins of U2OS cell lysate (Homo sapiens, UniProt O95373)
T4 construct: Proteins enriched by c-ponatinib from U2OS cell lysate; endogenous in cells; host or cells: U2OS cell lysate
Outline: as §1

[6] = target: T5, proteins of U2OS cell lysate (Homo sapiens, UniProt Q12874)
T5 construct: Proteins enriched by c-ponatinib from U2OS cell lysate; endogenous in cells; host or cells: U2OS cell lysate
Outline: as §1

[7] = target: T6, proteins of U2OS cell lysate (Homo sapiens, UniProt P50613)
T6 construct: Proteins enriched by c-ponatinib from U2OS cell lysate; endogenous in cells; host or cells: U2OS cell lysate
Outline: as §1

[8] = target: T7, proteins of U2OS cell lysate (Homo sapiens, UniProt O75533)
T7 construct: Proteins enriched by c-ponatinib from U2OS cell lysate; endogenous in cells; host or cells: U2OS cell lysate
Outline: as §1

[9] = target: T8, proteins of U2OS cell lysate (Homo sapiens, UniProt P36957)
T8 construct: Proteins enriched by c-ponatinib from U2OS cell lysate; endogenous in cells; host or cells: U2OS cell lysate
Outline: as §1

[10] = target: T9, proteins of U2OS cell lysate (Homo sapiens, UniProt P40227)
T9 construct: Proteins enriched by c-ponatinib from U2OS cell lysate; endogenous in cells; host or cells: U2OS cell lysate
Outline: as §1

[11] = target: T10, proteins of U2OS cell lysate (Homo sapiens, UniProt P39656)
T10 construct: Proteins enriched by c-ponatinib from U2OS cell lysate; endogenous in cells; host or cells: U2OS cell lysate
Outline: as §1

[12] = target: T11, proteins of U2OS cell lysate (Homo sapiens, UniProt P30049)
T11 construct: Proteins enriched by c-ponatinib from U2OS cell lysate; endogenous in cells; host or cells: U2OS cell lysate
Outline: as §1

[13] = target: T12, proteins of U2OS cell lysate (Homo sapiens, UniProt Q15019)
T12 construct: Proteins enriched by c-ponatinib from U2OS cell lysate; endogenous in cells; host or cells: U2OS cell lysate
Outline: as §1

[14] = target: T13, proteins of U2OS cell lysate (Homo sapiens, UniProt P60228)
T13 construct: Proteins enriched by c-ponatinib from U2OS cell lysate; endogenous in cells; host or cells: U2OS cell lysate
Outline: as §1

[15] = target: T14, proteins of U2OS cell lysate (Homo sapiens, UniProt Q7RTV0)
T14 construct: Proteins enriched by c-ponatinib from U2OS cell lysate; endogenous in cells; host or cells: U2OS cell lysate
Outline: as §1

[16] = target: T15, proteins of U2OS cell lysate (Homo sapiens, UniProt P12814)
T15 construct: Proteins enriched by c-ponatinib from U2OS cell lysate; endogenous in cells; host or cells: U2OS cell lysate
Outline: as §1

[17] = target: T16, proteins of U2OS cell lysate (Homo sapiens, UniProt Q9UBM7)
T16 construct: Proteins enriched by c-ponatinib from U2OS cell lysate; endogenous in cells; host or cells: U2OS cell lysate
Outline: as §1

T12 sequence (Q15019 whole entry): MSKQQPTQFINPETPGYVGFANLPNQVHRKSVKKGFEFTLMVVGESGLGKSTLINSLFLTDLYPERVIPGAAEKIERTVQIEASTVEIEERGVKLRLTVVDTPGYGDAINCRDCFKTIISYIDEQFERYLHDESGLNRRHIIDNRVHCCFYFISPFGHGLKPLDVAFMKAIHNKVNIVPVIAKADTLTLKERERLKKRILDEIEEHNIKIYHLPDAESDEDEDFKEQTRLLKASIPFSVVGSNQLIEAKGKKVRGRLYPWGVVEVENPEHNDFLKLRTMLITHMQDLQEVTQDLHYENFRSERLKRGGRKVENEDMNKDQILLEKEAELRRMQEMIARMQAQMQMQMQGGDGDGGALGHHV
T8 sequence (P36957 68-453): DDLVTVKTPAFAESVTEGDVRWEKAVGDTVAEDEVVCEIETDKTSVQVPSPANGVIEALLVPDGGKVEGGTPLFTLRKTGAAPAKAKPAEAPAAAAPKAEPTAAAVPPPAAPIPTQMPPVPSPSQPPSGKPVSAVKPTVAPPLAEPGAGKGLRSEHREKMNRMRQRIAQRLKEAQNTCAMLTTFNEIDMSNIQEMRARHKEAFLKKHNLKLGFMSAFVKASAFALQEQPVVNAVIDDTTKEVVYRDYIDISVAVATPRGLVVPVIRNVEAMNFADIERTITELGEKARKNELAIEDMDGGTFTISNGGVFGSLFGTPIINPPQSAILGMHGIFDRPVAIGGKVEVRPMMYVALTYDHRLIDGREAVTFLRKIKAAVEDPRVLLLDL
T1 sequence (Q03252 whole entry): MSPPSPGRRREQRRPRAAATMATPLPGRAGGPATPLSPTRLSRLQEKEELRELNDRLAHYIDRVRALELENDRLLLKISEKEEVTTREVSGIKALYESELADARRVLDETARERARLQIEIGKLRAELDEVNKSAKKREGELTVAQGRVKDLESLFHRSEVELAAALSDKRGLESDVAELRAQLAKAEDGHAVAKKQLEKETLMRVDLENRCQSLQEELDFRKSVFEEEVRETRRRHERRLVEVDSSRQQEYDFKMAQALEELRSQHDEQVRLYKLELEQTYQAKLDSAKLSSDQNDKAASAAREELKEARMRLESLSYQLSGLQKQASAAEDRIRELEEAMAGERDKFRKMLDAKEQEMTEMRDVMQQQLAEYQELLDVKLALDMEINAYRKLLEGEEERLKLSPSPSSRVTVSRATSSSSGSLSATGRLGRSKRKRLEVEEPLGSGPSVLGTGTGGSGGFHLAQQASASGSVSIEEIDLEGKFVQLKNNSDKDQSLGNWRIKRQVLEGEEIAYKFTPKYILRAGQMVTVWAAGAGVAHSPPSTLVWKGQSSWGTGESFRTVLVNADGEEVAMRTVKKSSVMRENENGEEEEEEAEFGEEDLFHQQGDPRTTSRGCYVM
T14 sequence (Q7RTV0 whole entry): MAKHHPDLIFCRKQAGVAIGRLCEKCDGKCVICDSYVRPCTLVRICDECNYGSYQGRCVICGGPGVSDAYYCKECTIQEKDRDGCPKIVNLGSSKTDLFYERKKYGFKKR
T4 sequence (O95373 whole entry): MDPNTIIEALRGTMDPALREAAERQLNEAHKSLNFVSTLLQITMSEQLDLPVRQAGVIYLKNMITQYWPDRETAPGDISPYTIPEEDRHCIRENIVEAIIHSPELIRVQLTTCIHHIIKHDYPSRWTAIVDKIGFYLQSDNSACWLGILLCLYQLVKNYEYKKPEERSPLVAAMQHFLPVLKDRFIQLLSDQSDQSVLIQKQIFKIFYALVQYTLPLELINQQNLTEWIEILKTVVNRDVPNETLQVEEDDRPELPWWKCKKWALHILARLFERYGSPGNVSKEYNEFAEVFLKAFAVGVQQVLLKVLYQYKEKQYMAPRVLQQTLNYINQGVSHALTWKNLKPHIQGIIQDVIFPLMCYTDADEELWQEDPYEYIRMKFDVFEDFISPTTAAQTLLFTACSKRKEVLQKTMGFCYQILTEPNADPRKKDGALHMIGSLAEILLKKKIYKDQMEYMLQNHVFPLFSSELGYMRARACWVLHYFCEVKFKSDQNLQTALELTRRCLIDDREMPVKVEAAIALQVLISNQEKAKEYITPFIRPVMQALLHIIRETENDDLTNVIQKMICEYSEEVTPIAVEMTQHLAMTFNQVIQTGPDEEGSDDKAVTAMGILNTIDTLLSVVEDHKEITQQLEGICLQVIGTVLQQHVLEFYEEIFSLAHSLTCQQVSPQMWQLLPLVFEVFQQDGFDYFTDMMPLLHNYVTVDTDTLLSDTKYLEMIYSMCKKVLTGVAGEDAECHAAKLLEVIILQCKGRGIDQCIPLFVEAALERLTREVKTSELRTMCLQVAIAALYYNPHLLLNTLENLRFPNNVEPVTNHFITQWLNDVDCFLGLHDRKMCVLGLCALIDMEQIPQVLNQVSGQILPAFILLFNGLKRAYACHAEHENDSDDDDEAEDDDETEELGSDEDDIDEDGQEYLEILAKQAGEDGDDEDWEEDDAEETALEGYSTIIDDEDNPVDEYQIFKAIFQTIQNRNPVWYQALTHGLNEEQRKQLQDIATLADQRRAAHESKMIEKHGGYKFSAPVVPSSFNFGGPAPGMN
T13 sequence (P60228 whole entry): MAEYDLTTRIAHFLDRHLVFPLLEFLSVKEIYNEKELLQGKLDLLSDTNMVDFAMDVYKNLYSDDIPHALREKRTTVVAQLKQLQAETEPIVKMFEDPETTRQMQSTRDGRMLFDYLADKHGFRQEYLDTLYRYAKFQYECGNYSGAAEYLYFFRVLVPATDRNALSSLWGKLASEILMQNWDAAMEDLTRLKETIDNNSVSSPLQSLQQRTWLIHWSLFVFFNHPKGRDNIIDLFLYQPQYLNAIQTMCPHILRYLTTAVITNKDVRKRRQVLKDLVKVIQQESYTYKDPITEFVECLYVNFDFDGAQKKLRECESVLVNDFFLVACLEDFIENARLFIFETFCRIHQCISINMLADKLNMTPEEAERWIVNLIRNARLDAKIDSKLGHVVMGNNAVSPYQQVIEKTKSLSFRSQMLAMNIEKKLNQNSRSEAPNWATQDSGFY
T5 sequence (Q12874 whole entry): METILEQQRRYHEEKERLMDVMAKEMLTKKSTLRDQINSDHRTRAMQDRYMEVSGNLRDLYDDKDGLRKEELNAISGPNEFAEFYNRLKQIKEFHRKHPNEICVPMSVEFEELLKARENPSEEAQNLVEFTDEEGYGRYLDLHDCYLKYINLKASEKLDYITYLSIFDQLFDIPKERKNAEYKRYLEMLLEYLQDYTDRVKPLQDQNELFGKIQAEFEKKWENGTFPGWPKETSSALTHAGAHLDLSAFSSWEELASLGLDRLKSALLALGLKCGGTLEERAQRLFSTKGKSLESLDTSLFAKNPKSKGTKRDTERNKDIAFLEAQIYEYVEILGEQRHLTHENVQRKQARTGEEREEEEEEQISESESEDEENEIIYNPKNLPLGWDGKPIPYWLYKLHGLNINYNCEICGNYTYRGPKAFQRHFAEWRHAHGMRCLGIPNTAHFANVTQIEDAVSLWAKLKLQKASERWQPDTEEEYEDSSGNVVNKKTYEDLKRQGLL
T6 sequence (P50613 whole entry): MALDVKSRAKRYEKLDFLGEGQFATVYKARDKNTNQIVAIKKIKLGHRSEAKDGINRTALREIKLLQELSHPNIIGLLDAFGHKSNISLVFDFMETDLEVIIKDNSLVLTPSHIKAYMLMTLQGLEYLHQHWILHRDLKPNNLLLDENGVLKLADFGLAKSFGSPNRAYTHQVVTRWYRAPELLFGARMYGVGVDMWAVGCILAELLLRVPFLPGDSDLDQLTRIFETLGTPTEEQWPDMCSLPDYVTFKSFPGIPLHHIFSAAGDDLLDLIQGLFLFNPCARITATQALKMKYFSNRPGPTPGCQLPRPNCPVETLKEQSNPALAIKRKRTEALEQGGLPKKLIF
T15 sequence (P12814 whole entry): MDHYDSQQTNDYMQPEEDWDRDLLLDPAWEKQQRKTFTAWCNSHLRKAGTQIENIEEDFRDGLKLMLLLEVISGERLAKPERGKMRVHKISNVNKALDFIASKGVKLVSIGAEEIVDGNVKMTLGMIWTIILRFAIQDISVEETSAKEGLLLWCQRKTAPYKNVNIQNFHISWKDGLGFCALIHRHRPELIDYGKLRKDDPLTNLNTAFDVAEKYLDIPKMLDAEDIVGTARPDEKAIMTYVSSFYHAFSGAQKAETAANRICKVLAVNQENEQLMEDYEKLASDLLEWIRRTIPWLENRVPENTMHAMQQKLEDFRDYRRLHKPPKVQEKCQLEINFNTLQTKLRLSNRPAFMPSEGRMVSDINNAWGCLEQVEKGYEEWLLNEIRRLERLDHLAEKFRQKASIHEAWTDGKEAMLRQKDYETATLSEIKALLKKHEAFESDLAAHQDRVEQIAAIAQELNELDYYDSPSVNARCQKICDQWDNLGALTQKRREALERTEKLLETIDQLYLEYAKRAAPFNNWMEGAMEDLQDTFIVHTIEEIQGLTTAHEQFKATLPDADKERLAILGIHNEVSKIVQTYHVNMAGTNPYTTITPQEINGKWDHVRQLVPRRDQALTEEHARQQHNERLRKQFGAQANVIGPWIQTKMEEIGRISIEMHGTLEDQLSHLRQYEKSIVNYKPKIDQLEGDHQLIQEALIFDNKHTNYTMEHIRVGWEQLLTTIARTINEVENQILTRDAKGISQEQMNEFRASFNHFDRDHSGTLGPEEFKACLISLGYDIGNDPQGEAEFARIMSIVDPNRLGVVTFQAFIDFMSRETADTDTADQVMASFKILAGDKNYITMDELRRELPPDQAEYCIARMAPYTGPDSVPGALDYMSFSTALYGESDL
T3 sequence (P25786 whole entry): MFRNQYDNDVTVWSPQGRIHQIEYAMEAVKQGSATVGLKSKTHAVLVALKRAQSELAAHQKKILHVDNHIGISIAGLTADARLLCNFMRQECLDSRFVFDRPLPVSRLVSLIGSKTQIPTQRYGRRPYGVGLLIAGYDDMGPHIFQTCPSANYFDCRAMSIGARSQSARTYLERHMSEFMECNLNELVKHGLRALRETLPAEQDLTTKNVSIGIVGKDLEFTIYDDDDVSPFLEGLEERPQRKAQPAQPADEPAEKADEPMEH

Cc1ccc(C(=O)Nc2ccc(CN3CCN(C)CC3)c(C(F)(F)F)c2)cc1C#Cc1cnc2cccnn12 [PON]
Average LFQ PON_WT ([1]; LMNB2, Lamin-B2): 22.9109 | Average LFQ PON_WT ([2]; HSPH1, Heat shock protein 105 kDa): 22.355 | Average LFQ PON_WT ([3]; PSMA1, Proteasome subunit alpha type-1): 22.7928 | Average LFQ PON_WT ([4]; ACTG1;ACTB;ACTG2;ACTA1;ACTC1;ACTA2, Actin, cytoplasmic 2): 29.1554 | Average LFQ PON_WT ([4]; HIST1H1C;HIST1H1E;HIST1H1D;HIST1H1A, Histone H1.2): 24.5034 | Average LFQ PON_WT ([5]; IPO7, Importin-7): 23.1828 | Average LFQ PON_WT ([6]; SF3A3, Splicing factor 3A subunit 3): 21.5172 | Average LFQ PON_WT ([7]; CDK7, Cyclin-dependent kinase 7): 22.0619 | Average LFQ PON_WT ([8]; SF3B1, Splicing factor 3B subunit 1): 22.352 | Average LFQ PON_WT ([9]; DLST, Dihydrolipoyllysine-residue succinyltransferase component of 2-oxoglutarate dehydrogenase complex, mitochondrial): 21.6592 | Average LFQ PON_WT ([10]; CCT6A, T-complex protein 1 subunit zeta): 22.8673 | Average LFQ PON_WT ([11]; DDOST, Dolichyl-diphosphooligosaccharide--protein glycosyltransferase 48 kDa subunit): 22.9075 | Average LFQ PON_WT ([12]; ATP5D, ATP synthase subunit delta, mitochondrial): 23.0608 | Average LFQ PON_WT ([13]; SEPT2, Septin-2): 22.2443 | Average LFQ PON_WT ([14]; EIF3E, Eukaryotic translation initiation factor 3 subunit E): 22.7111 | Average LFQ PON_WT ([15]; PHF5A, PHD finger-like domain-containing protein 5A): 21.937 | Average LFQ PON_WT ([16]; ACTN1, Alpha-actinin-1): 22.3393 | Average LFQ PON_WT ([17]; DHCR7, 7-dehydrocholesterol reductase): 21.6093

Cc1ccc(C(=O)Nc2ccc(CN3CCN(CCCN)CC3)c(C(F)(F)F)c2)cc1C#Cc1cnc2cccnn12 [c-ponatinib, reference compound]
Average LFQ intensity ([1]; captured protein LMNB2, Rank 128): 22.9109 | Average LFQ intensity ([2]; captured protein HSPH1, Rank 164): 22.3551 | Average LFQ intensity ([3]; captured protein PSMA1, Rank 138): 22.7928 | Average LFQ intensity ([4]; captured protein ACTR1A;ACTR1B, Rank 131): 22.8935 | Average LFQ intensity ([4]; captured protein ATP1A1;ATP1A3;ATP1A2, Rank 167): 22.3247 | Average LFQ intensity ([4]; captured protein CDK1;CDK2, Rank 143): 22.743 | Average LFQ intensity ([4]; captured protein DYNLRB1;DYNLRB2, Rank 170): 22.2764 | Average LFQ intensity ([4]; captured protein GNB2;GNB4;GNB1, Rank 150): 22.669 | Average LFQ intensity ([4]; captured protein H3F3B;H3F3A;HIST2H3A;HIST3H3;HIST1H3A;H3F3C;HIST2H3PS2, Rank 159): 22.4876 | Average LFQ intensity ([4]; captured protein HNRNPA1;HNRNPA1L2, Rank 216): 21.6974 | Average LFQ intensity ([4]; captured protein LUC7L2;LUC7L, Rank 142): 22.7445 | Average LFQ intensity ([4]; captured protein MYL12A;MYL12B, Rank 201): 21.8427 | Average LFQ intensity ([4]; captured protein OGDH;OGDHL, Rank 189): 22.0277 | Average LFQ intensity ([4]; captured protein PSMA7;PSMA8, Rank 184): 22.0977 | Average LFQ intensity ([4]; captured protein RAB11A;RAB11B, Rank 162): 22.3634 | Average LFQ intensity ([4]; captured protein RPS10;RPS10P5, Rank 217): 21.6692 | Average LFQ intensity ([4]; captured protein RPS26;RPS26P11, Rank 219): 21.6239 | Average LFQ intensity ([4]; captured protein RPS27L;RPS27, Rank 208): 21.7512 | Average LFQ intensity ([4]; captured protein SNRPN;SNRPB, Rank 206): 21.7664 | Average LFQ intensity ([5]; captured protein IPO7, Rank 116): 23.1828 | Average LFQ intensity ([6]; captured protein SF3A3, Rank 228): 21.5172 | Average LFQ intensity ([7]; captured protein CDK7, Rank 187): 22.0619 | Average LFQ intensity ([8]; captured protein SF3B1, Rank 165): 22.352 | Average LFQ intensity ([9]; captured protein DLST, Rank 218): 21.6592 | Average LFQ intensity ([10]; captured protein CCT6A, Rank 133): 22.8673 | Average LFQ intensity ([11]; captured protein DDOST, Rank 129): 22.9075 | Average LFQ intensity ([12]; captured protein ATP5D, Rank 121): 23.0608 | Average LFQ intensity ([13]; captured protein 2002-09-01 (Septin-2), Rank 174): 22.2443 | Average LFQ intensity ([14]; captured protein EIF3E, Rank 148): 22.7111 | Average LFQ intensity ([15]; captured protein PHF5A, Rank 194): 21.937 | Average LFQ intensity ([16]; captured protein ACTN1, Rank 166): 22.3393 | Average LFQ intensity ([17]; captured protein DHCR7, Rank 220): 21.6093
